Laboratory results from publication PMC6099768, “Application of Docking Analysis in the Prediction and Biological Evaluation of the Lipoxygenase Inhibitory Action of Thiazolyl Derivatives of Mycophenolic Acid” (Molecules : A Journal of Synthetic Chemistry and Natural …, 2018).
Where two headings read alike, the source gives them in different places.

Biological target: T1, soybean LOX type 1b (sLOX-1) (Glycine max, UniProt P08170)
T1 sequence (P08170 1-839): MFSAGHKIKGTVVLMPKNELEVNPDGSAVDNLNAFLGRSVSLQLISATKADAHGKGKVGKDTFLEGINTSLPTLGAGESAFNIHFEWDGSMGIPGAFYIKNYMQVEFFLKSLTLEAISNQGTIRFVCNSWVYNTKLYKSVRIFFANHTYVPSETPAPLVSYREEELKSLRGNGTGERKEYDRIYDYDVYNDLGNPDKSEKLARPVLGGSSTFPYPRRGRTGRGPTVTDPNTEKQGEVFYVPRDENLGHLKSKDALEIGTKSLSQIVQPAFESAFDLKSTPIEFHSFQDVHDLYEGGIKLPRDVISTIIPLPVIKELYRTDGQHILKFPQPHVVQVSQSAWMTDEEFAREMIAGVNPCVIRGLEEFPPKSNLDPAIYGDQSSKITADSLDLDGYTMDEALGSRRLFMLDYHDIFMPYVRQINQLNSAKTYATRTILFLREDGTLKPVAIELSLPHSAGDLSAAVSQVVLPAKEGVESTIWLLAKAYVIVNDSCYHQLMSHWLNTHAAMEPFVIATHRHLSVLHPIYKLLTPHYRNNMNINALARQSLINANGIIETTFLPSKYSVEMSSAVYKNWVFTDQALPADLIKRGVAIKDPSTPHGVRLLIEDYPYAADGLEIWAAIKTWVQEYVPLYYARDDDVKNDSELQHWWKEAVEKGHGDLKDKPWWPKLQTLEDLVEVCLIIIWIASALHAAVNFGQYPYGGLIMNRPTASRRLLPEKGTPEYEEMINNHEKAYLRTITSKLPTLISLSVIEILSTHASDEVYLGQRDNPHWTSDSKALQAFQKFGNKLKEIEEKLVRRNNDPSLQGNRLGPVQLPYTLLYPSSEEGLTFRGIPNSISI
Assay: Soybean lipoxygenase inhibition study in vitro
Assay type: biochemical
Procedure: For the evaluation of lipoxygenase inhibition soybean LOX type 1b was used as reported previously. The selection was based on the structural and functional similarity of sLOX-1 with mammalian LOX [36, 50, 51, 52] which makes it the most commonly used LOX enzyme in drug screening, followed by sLOX-3 [40].
The assay conditions were as previously reported. Different compound concentrations were used for the calculation of IC50 values. The experiments were performed in triplicate.

[1] = printed as negative values (−log of IC50 in µM), read-out: pIC50 (converted)
[2] = soybean LOX type 1b, means of three determinations, deviation <10% of the mean, read-out: IC50
[3] = Table 6, unit inferred, same values as Table 5, read-out: IC50

Row | SMILES | IC50 [1] [µM] | IC50 [2] [µM] | IC50 [3] [µM]
1 | COc1c(C)c2c(c(O)c1C/C=C(\C)CCC(=O)Nc1ncc(C)s1)C(=O)OC2 [Compound 2, (E)-6-(4-Hydroxy-6-methoxy-7-methyl-3-oxo-1,3-dihydroisobenzofuran-5-yl)-4-methyl-N-(5-methylthiazol-2-yl)hex-4-enamide] | 22.5 | 22.5 | 22.5
2 | COc1c(C)c2c(c(O)c1C/C=C(\C)CCC(=O)Nc1nc(C)c(C)s1)C(=O)OC2 [Compound 3, (E)-N-(4,5-Dimethylthiazol-2-yl)-6-(4-hydroxy-6-methoxy-7-methyl-3-oxo-1,3-dihydroisobenzofuran-5-yl)-4-methylhex-4-enamide] | 43.8 | 43.7 | 
3 | CCOC(=O)c1sc(NC(=O)CC/C(C)=C/Cc2c(O)c3c(c(C)c2OC)COC3=O)nc1C [Compound 5, (E)-Ethyl-2-(6-(4-hydroxy-6-methoxy-7-methyl-3-oxo-1,3-dihydroisobenzofuran-5-yl)-4-methylhex-4-enamido)-4-methylthiazole-5-carboxylate] |  | 22.5 | 22.5
4 | CCOC(=O)Cc1csc(NC(=O)CC/C(C)=C/Cc2c(O)c3c(c(C)c2OC)COC3=O)n1 [Compound 6, (E)-Ethyl-2-(2-(6-(4-hydroxy-6-methoxy-7-methyl-3-oxo-1,3-dihydroisobenzofuran-5-yl)-4-methylhex-4-enamido)thiazol-4-yl)acetate] | 30 | 30 | 
5 | COc1c(C)c2c(c(O)c1C/C=C(\C)CCC(=O)Nc1nc(-c3ccncc3)cs1)C(=O)OC2 [Compound 7, (E)-6-(4-Hydroxy-6-methoxy-7-methyl-3-oxo-1,3-dihydroisobenzofuran-5-yl)-4-methyl-N-(4-(pyridin-4-yl)thiazol-2-yl)hex-4-enamide] | 78.7 | 78.8 | 
6 | COc1c(C)c2c(c(O)c1C/C=C(\C)CCC(=O)Nc1nc3ccccc3s1)C(=O)OC2 [Compound 10, (E)-N-(Benzo[d]thiazol-2-yl)-6-(4-hydroxy-6-methoxy-7-methyl-3-oxo-1,3-dihydroisobenzofuran-5-yl)-4-methylhex-4-enamide] | 89.9 | 90 | 
7 | COc1ccc2nc(NC(=O)CC/C(C)=C/Cc3c(O)c4c(c(C)c3OC)COC4=O)sc2c1 [Compound 11, (E)-6-(4-Hydroxy-6-methoxy-7-methyl-3-oxo-1,3-dihydroisobenzofuran-5-yl)-N-(6-methoxybenzo[d]thiazol-2-yl)-4-methylhex-4-enamide] | 156 | 156 | 156
8 | COc1c(C)c2c(c(O)c1C/C=C(\C)CCC(=O)Nc1nc3c(s1)CCCC3)C(=O)OC2 [Compound 12, (E)-6-(4-Hydroxy-6-methoxy-7-methyl-3-oxo-1,3-dihydroisobenzofuran-5-yl)-4-methyl-N-(4,5,6,7-tetrahydrobenzo[d]thiazol-2-yl)hex-4-enamide] |  | 61.2 | 
9 | COc1c(C)c2c(c(O)c1C/C=C(\C)CCC(=O)Nc1nc3c(s1)CCCCC3)C(=O)OC2 [Compound 13, (E)-6-(4-Hydroxy-6-methoxy-7-methyl-3-oxo-1,3-dihydroisobenzofuran-5-yl)-4-methyl-N-(5,6,7,8-tetrahydro-4H-cyclohepta[d]thiazol-2-yl)hex-4-enamide] |  | 25 | 
10 | COc1c(C)c2c(c(O)c1C/C=C(\C)CCC(=O)Nc1nc3c(s1)CCC3)C(=O)OC2 [Compound 14, (E)-N-(5,6-Dihydro-4H-cyclopenta[d]thiazol-2-yl)-6-(4-hydroxy-6-methoxy-7-methyl-3-oxo-1,3-dihydroisobenzofuran-5-yl)-4-methylhex-4-enamide] |  | 31.2 | 
11 | COc1c(C)c2c(c(OC)c1C/C=C(\C)CCC(=O)Nc1ncc(C)s1)C(=O)OC2 [Compound 16, (E)-6-(4,6-Dimethoxy-7-methyl-3-oxo-1,3-dihydroisobenzofuran-5-yl)-4-methyl-N-(5-methylthiazol-2-yl)hex-4-enamide] |  | 90 | 

The remaining compounds from weak to strong by IC50 [2], led by results:

Row | IC50 [1] [µM] | IC50 [2] [µM] | IC50 [3] [µM] | SMILES
12 |  | 96.3 |  | COc1c(C)c2c(c(OC)c1C/C=C(\C)CCC(=O)Nc1nccs1)C(=O)OC2 [Compound 15, (E)-6-(4,6-Dimethoxy-7-methyl-3-oxo-1,3-dihydroisobenzofuran-5-yl)-4-methyl-N-(thiazol-2-yl)hex-4-enamide]
13 | 89.9 | 90 | 90 | COc1c(C)c2c(c(O)c1C/C=C(\C)CCC(=O)Nc1nc(-c3cccnc3)cs1)C(=O)OC2 [Compound 8]
14 | 31.3 | 31.2 | 31.2 | COc1c(C)c2c(c(O)c1C/C=C(\C)CCC(=O)Nc1nc(C)cs1)C(=O)OC2 [Compound 4, (E)-6-(4-Hydroxy-6-methoxy-7-methyl-3-oxo-1,3-dihydroisobenzofuran-5-yl)-4-methyl-N-(4-methylthiazol-2-yl)hex-4-enamide]
15 | 26.2 | 26.3 |  | COc1c(C)c2c(c(O)c1C/C=C(\C)CCC(=O)Nc1nccs1)C(=O)OC2 [Compound 1, (E)-6-(4-Hydroxy-6-methoxy-7-methyl-3-oxo-1,3-dihydroisobenzofuran-5-yl)-4-methyl-N-(thiazol-2-yl)hex-4-enamide]
16 | 2.5 | 2.5 | 2.5 | COc1c(C)c2c(c(O)c1C/C=C(\C)CCC(=O)Nc1nc(-c3ccccn3)cs1)C(=O)OC2 [Compound 9, (E)-6-(4-Hydroxy-6-methoxy-7-methyl-3-oxo-1,3-dihydroisobenzofuran-5-yl)-4-methyl-N-(4-(pyridin-2-yl)thiazol-2-yl)hex-4-enamide]
